The source of these data is ChEMBL document CHEMBL4627277, “Catenulisporidins A and B, 16-membered macrolides of the hygrolidin family produced by the chemically underexplored actinobacterium Catenulispora species” (Bioorg Med Chem Lett, 2020).

Type in all cases: functional, cell-based
Assay [1] relates to HeLa. The assay is described as follows: Induction of autophagy in human HeLa cells expressing mRFP-EGFP-LC3B assessed as accumulation of red and green fluorescence signals at 200 nM measured after 24 hrs by fluorescence microscopic analysis.
Assay [2] deals with HeLa. The assay is described as follows: Modulation of autophagy in human HeLa cells assessed as autophagosome maturation by measuring conversion of LC3B-I to LC3B-II measured after 24 hrs by western blot analysis. In general terms: In western blotting, separated proteins are transferred to a membrane and probed.
The subject of assay [3] is HeLa. The assay is described as follows: Modulation of autophagy in human HeLa cells expressing mRFP-EGFP-LC3B assessed as induction of EGFP-LC3B puncta formation at 0.3 uM measured after 24 hrs by fluorescence microscopic analysis.
The test system of assay [4] is HeLa. The assay is described as follows: Inhibition of autophagic flux in human HeLa cells expressing mRFP-EGFP-LC3B assessed as blockage of autophagosome-lysosome fusion by measuring accumulation of yellow puncta at 3 uM measured after 24 hrs by fluorescence microscopic analysis.
The subject of assay [5] is HeLa. Description: Modulation of autophagy in human HeLa cells expressing mRFP-EGFP-LC3B assessed as induction of EGFP-LC3B puncta formation at 3 uM measured after 24 hrs by fluorescence microscopic analysis.
For assay [6], the system named is HeLa. Description: Antiproliferative activity against human HeLa cells assessed as reduction in cell growth.
Assay [7] concerns HeLa. Description: Modulation of autophagy in human HeLa cells assessed as accumulation of p62 measured after 24 hrs by western blot analysis.

Active and inactive are the calls of the source. The rule behind the calls is not given here. A value given as a limit tells only on which side of the number the result lay.

For `CCC(=O)N1CCN(c2ccc(-n3c(=O)ccc4cnc5ccc(-c6cnc7ccccc7c6)cc5c43)cc2C(F)(F)F)CC1`, the outcome in the assay on HeLa [1] was Active.

With `CC[C@H]1O[C@@](O)([C@@H](C)[C@H](O)[C@H](C)[C@H]2OC(=O)/C(C)=C/C(C)=C/[C@@H](C)[C@@H](O)[C@@H](C)C/C(C)=C/C=C/[C@@H]2OC)C[C@@H](OC(=O)/C=C/C(=O)O)[C@@H]1C`, the Activity entry in the assay on HeLa [2] and in the assay on HeLa [7] was “Dose-dependent effect” in each case. Further, the result in the assay with HeLa [3] and in the assay on HeLa [5] was Active. For the same compound, the inhibition entry in the assay on HeLa [4] is “Active”. For the same compound, the IC50 (as a rule, the concentration that gives 50% inhibition) with HeLa [6] turned out to be 11.8 µM.

Consider `CO/C1=C\C(C)=C\[C@@H](C)[C@@H](O)[C@@H](C)C/C(C)=C/C=C/[C@H](OC)[C@@H]([C@@H](C)[C@@H](O)[C@H](C)[C@@]2(O)C[C@@H](O)[C@H](C)[C@@H](C(C)C)O2)OC1=O` [BAFILOMYCIN A1], for which the outcome in the assay on HeLa [3] and in the assay on HeLa [5] was Active. For the same compound, the inhibition result in the assay on HeLa [4] was “Active”. Further, the 50% inhibitory concentration (IC50) with HeLa [6] stood at 13 µM. In addition, the Activity entry with HeLa [7] is “Dose-dependent effect”.

Consider `CC[C@H]1O[C@@](O)([C@@H](C)[C@H](O)[C@H](C)[C@H]2OC(=O)/C(C)=C/C(C)=C/[C@@H](C)[C@H]3O[C@](C)(C[C@@H]3C)[C@@H](O)/C=C/[C@@H]2OC)C[C@@H](OC(=O)/C=C/C(=O)O)[C@@H]1C`, for which the Activity entry with HeLa [2] and in the assay on HeLa [7] was “Dose-dependent effect” in each case. Also, the inhibition entry with HeLa [4] was “Active”. Also, the outcome in the assay with HeLa [5] was Active. Further, in the assay with HeLa [6], the half-inhibitory concentration (IC50) is greater than 30 µM.

Consider `CC[C@H]1O[C@@](O)([C@@H](C)[C@H](O)[C@H](C)[C@H]2OC(=O)/C(C)=C/C(C)=C/[C@@H](C)[C@@H](O)[C@@H](C)C[C@@](C)(O)[C@@H](O)/C=C/[C@@H]2OC)C[C@@H](OC(=O)/C=C/C(=O)O)[C@@H]1C`, for which the Activity result in the assay with HeLa [2] and in the assay with HeLa [7] was “Dose-dependent effect” each time. Further, in the assay on HeLa [4], the inhibition entry was “Active”. The outcome with HeLa [5] was Active. Further, in the assay on HeLa [6], the IC50 was greater than 30 µM.
